Results taken from paper PMC12519771 (BMC Cancer, 2025).

Legend:
[1] = Adverse events (CTCAE v5.0), safety analysis set
Protocol: Adverse events were recorded continuously until 30 (± 7) days after discontinuation of study treatment and graded using the National Cancer Institute Common Terminology Criteria for Adverse Events v5.0.

[2] = cited from earlier work
[3] = human, in vivo, po, 480 mg
Text: After completion of Part A, patients continued to Part B of the study. […] Treatment with paclitaxel continued for at least six cycles unless the patient experienced unacceptable paclitaxel-related toxicity or disease progression.
For patients with dose interruption in Cycle 2 before Week 2 Day 5, sample collection could be postponed to Week 2 Day 5 of the subsequent or later cycle, providing there was no dose interruption before Week 2 Day 5 of that cycle.

[4] = oral administration, Western and Japanese patients
[5] = related to capivasertib only per investigator, N = 16

For CC(=O)O[C@H]1C(=O)[C@@]2(C)[C@H]([C@H](OC(=O)c3ccccc3)[C@]3(O)C[C@H](OC(=O)[C@H](O)[C@@H](NC(=O)c4ccccc4)c4ccccc4)C(C)=C1C3(C)C)[C@]1(OC(C)=O)CO[C@@H]1C[C@@H]2O [paclitaxel], the “patients with adverse events leading to dose interruptions of paclitaxel” value ([1]; human, in vivo) was 75.0% and the “patients with adverse events leading to dose reductions of paclitaxel” value ([1]; human, in vivo) was 31.3%.
In the case of NC1(C(=O)N[C@@H](CCO)c2ccc(Cl)cc2)CCN(c2nc[nH]c3nccc2-3)CC1 [Capivasertib, capivasertib], the “dose proportionality of plasma exposure (AUC over the dosing interval and Cmax)” value ([2]; doses ranging from 80 mg to 800 mg) is given as “approximately dose-proportional”, the median tmax [2, 4] is given as 1 to 2 h and the “terminal elimination half-life (t½λz)” value [2, 4] is given as “approximately 10 h”. For the same molecule, the “patients with adverse events leading to dose interruptions of capivasertib” value ([1]; N = 16) was 87.5%, the “patients with adverse events leading to dose reductions of capivasertib” value ([1]; N = 16) was 31.3% and the “Anaemia, Grade ≥3” value [1, 5] was 0 n (%). For the same molecule, the “Anaemia, any grade” value [1, 5] was 4 (25.0) n (%), the “Any adverse event, Grade ≥3” value [1, 5] was 9 (56.3) n (%) and the “Any adverse event, any grade” value [1, 5] was 16 (100.0) n (%). The “Aspartate aminotransferase increased, Grade ≥3” value [1, 5] was 0 n (%), the “Aspartate aminotransferase increased, any grade” value [1, 5] was 1 (6.3) n (%) and the “Blood albumin decreased, Grade ≥3” value [1, 5] was 0 n (%). The “Blood albumin decreased, any grade” value [1, 5] was 1 (6.3) n (%), the “Blood bilirubin increased, Grade ≥3” value [1, 5] was 0 n (%) and the “Blood bilirubin increased, any grade” value [1, 5] was 2 (12.5) n (%). For the same molecule, the “Blood creatinine increased, Grade ≥3” value [1, 5] was 0 n (%), the “Blood creatinine increased, any grade” value [1, 5] was 2 (12.5) n (%) and the “Blood triglycerides increased, Grade ≥3” value [1, 5] was 0 n (%). The “Blood triglycerides increased, any grade” value [1, 5] was 0 n (%), the “Blood uric acid increased, Grade ≥3” value [1, 5] was 0 n (%) and the “Blood uric acid increased, any grade” value [1, 5] was 1 (6.3) n (%). The “Diarrhoea, Grade ≥3” value [1, 5] was 0 n (%), the “Diarrhoea, any grade” value [1, 5] was 11 (68.8) n (%) and the “Glycosylated haemoglobin increased, Grade ≥3” value [1, 5] was 0 n (%). The “Glycosylated haemoglobin increased, any grade” value [1, 5] was 0 n (%), the “Hyperglycaemia, Grade ≥3” value [1, 5] was 2 (12.5) n (%) and the “Hyperglycaemia, any grade” value [1, 5] was 15 (93.8) n (%). The “Hypoalbuminaemia, Grade ≥3” value [1, 5] was 0 n (%), the “Hypoalbuminaemia, any grade” value [1, 5] was 4 (25.0) n (%) and the “Hypocalcaemia, Grade ≥3” value [1, 5] was 0 n (%). For the same molecule, the “Hypocalcaemia, any grade” value [1, 5] was 1 (6.3) n (%), the “Hypokalaemia, Grade ≥3” value [1, 5] was 0 n (%) and the “Hypokalaemia, any grade” value [1, 5] was 1 (6.3) n (%). For the same molecule, the “Hypomagnesaemia, Grade ≥3” value [1, 5] was 0 n (%), the “Hypomagnesaemia, any grade” value [1, 5] was 4 (25.0) n (%) and the “Hyponatraemia, Grade ≥3” value [1, 5] was 0 n (%). The “Hyponatraemia, any grade” value [1, 5] was 5 (31.3) n (%), the “Hypophosphataemia, Grade ≥3” value [1, 5] was 0 n (%) and the “Hypophosphataemia, any grade” value [1, 5] was 0 n (%). For the same molecule, the “Nausea, Grade ≥3” value [1, 5] was 0 n (%), the “Nausea, any grade” value [1, 5] was 2 (12.5) n (%) and the “Neutrophil count decreased, Grade ≥3” value [1, 5] was 0 n (%). For the same molecule, the “Neutrophil count decreased, any grade” value [1, 5] was 1 (6.3) n (%), the “Oedema peripheral, Grade ≥3” value [1, 5] was 0 n (%) and the “Oedema peripheral, any grade” value [1, 5] was 1 (6.3) n (%). The “Peripheral sensory neuropathy, Grade ≥3” value [1, 5] was 0 n (%), the “Peripheral sensory neuropathy, any grade” value [1, 5] was 0 n (%) and the “Platelet count decreased, Grade ≥3” value [1, 5] was 0 n (%). For the same molecule, the “Platelet count decreased, any grade” value [1, 5] was 1 (6.3) n (%), the “Proteinuria, Grade ≥3” value [1, 5] was 0 n (%) and the “Proteinuria, any grade” value [1, 5] was 5 (31.3) n (%). The “Pyrexia, Grade ≥3” value [1, 5] was 0 n (%), the “Pyrexia, any grade” value [1, 5] was 6 (37.5) n (%) and the “Rash (group term), Grade ≥3” value [1, 5] was 5 (31.3) n (%). The “Rash (group term), any grade” value [1, 5] was 10 (62.5) n (%), the “Stomatitis, Grade ≥3” value [1, 5] was 0 n (%) and the “Stomatitis, any grade” value [1, 5] was 1 (6.3) n (%). For the same molecule, the “Vomiting, Grade ≥3” value [1, 5] was 0 n (%), the “Vomiting, any grade” value [1, 5] was 1 (6.3) n (%) and the “Weight decreased, Grade ≥3” value [1, 5] was 0 n (%). For the same molecule, the “Weight decreased, any grade” value [1, 5] was 0 n (%), the “White blood cell count decreased, Grade ≥3” value [1, 5] was 1 (6.3) n (%) and the “White blood cell count decreased, any grade” value [1, 5] was 2 (12.5) n (%). The “AUC(0–12), gMean gCV %” value [3] was 5630 62.2 h×ng/mL, the “AUC(0–48), gMean gCV %” value [3] was 7244 58.8 h×ng/mL and the “AUCinf, gMean gCV %” value [3] was 7397 58.7 h×ng/mL. For the same molecule, the “CL/F, gMean gCV %” value [3] was 64.9 L/h and the “tmax, median (range)” value [3] was 1.0 h.
